A short description of data set [1]: Tumor cell line cytotoxicity of flavonoid dimers, LCC6. The format is cell-based, human. To be noted: human, LCC6 cells, IC50 of compound alone. How it is done:
(§1) (b) Tumor Cell Line Cytotoxicity. The tumor cytotoxicity assays of flavonoid dimers were performed against LCC6, LCC6MDR and L929 cell lines. […] In brief, LCC6, LCC6MDR and L929 cells were seeded into 96-well flat bottom microtiter plate at 1×10^4 cells per well in a final volume of 100 μL media, respectively. A graded dose of flavonoid dimers was added into wells. The plate was incubated at 37° C. for 72 hrs at the atmosphere 5% CO2 in the air. The % of survivors was determined.

Data set [2] in a line: Cytotoxicity of flavonoid dimers, L929 mouse fibroblast. The class given is cell-based. To be noted: mouse, L929 fibroblast cells, IC50 of compound alone, 72 hrs, mouse fibroblast. The protocol:
as §1

In data set [3] the target is Pgp (LCC6MDR cells) (Homo sapiens, UniProt P08183). Description: Cell proliferation assay: Pgp-modulating activity, reversal of anticancer drug resistance in LCC6MDR cells. To be noted: for RF (Relative Fold), cpd at 0.5 μM: RF = (IC50 without modulator)/(IC50 with 0.5 μM modulator); for RF (Relative Fold), cpd at 0.5 μM / RF (Relative Fold), cpd at 1 μM: paclitaxel; for RF (Relative Fold), cpd at 0.5 μM / RF (Relative Fold), cpd at 1 μM / EC50: LCC6MDR; for RF (Relative Fold), cpd at 1 μM: RF = (IC50 without modulator)/(IC50 with 1.0 μM modulator); for EC50: EC50 of compounds for reversing anticancer drug resistance (nM), Paclitaxel; for Therapeutic index: IC50 of compounds for L929/EC50 of compounds for lowering paclitaxel drug resistance.
Sequence of Pgp (LCC6MDR cells) (P08183 whole entry): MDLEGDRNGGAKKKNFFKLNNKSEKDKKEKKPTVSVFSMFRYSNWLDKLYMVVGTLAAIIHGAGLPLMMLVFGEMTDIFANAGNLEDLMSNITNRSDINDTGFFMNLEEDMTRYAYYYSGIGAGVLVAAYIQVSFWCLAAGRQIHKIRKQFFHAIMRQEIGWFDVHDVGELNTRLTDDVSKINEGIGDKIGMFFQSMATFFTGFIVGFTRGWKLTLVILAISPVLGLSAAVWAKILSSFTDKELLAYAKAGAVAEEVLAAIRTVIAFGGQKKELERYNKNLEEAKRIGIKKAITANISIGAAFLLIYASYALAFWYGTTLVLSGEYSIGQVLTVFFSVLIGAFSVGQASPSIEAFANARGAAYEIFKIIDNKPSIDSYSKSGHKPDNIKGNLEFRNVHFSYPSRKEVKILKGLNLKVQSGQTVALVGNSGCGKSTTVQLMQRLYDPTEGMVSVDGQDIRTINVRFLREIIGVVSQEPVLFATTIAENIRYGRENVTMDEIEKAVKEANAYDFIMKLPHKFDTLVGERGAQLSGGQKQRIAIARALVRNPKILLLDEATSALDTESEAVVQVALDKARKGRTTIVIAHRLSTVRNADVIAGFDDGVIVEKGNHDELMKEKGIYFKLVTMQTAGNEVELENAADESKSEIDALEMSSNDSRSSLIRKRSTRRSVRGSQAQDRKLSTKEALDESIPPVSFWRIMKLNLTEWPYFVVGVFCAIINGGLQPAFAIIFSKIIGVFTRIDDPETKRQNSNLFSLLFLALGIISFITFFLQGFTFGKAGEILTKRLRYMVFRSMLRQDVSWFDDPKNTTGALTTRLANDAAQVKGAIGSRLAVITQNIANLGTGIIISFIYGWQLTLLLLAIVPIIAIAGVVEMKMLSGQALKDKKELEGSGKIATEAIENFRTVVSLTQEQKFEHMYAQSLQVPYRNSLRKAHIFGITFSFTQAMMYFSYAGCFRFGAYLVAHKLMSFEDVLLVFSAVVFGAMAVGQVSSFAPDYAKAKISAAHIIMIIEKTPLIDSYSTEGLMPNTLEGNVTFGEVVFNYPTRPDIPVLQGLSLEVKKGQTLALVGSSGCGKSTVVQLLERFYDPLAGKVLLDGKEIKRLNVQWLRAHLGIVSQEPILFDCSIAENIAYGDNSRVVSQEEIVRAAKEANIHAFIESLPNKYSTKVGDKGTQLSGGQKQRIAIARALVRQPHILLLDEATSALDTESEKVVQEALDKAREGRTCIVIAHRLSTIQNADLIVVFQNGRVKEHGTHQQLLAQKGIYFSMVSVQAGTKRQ
Experimental: Cell Proliferation Assay. 6,000 cells of LCC6 or LCC6MDR and anticancer drugs (paclitaxel, vinblastine, vincristine, doxorubicin and mitoxantrone) were mixed with or without modulators to a final volume of 200 μL in each well of 96-well plates. […] The plates were then incubated for 5 days at 37° C. […] IC50 values were calculated from the dose-response curves of MTS assays (Prism 4.0).

Data set [4] is described as follows: Tumor cell line cytotoxicity of flavonoid dimers, LCC6MDR. The format is cell-based, human. The following applies: human, LCC6MDR cells, IC50 of compound alone. The protocol: as §1

Broadly, the IC50 is the point on the concentration scale where inhibition reaches its midpoint. A low value points to greater potency. Regarding `Cc1ccccc1CN(CCOCCOc1ccc(-c2cc(=O)c3ccccc3o2)cc1)CCOCCOc1ccc(-c2cc(=O)c3ccccc3o2)cc1` [Compound 46, 1,13-Bis[4′-(4H-chromen-4-on-2-yl)phenyl]-7-(2-methylbenzyl)-1,4,10,13-tetraoxa-7-azamidecane], the IC50 at 72 h in data set [1], in data set [2] and in data set [4] was over 100 µM each time. Further, the “RF (Relative Fold), cpd at 0.5 μM” value in data set [3] is on record as “(32.6)”. Besides, the “RF (Relative Fold), cpd at 1 μM” value in data set [3] was “(117.8)”.

In the case of `COc1cccc(CN(CCOCCOc2ccc(-c3cc(=O)c4ccccc4o3)cc2)CCOCCOc2ccc(-c3cc(=O)c4ccccc4o3)cc2)c1` [Compound 43, 1,13-Bis[4′-(4H-chromen-4-on-2-yl)phenyl]-7-(3-methoxybenzyl)-1,4,10,13-tetraoxa-7-azamidecane], the IC50 at 72 h in data set [1], in data set [2] and in data set [4] was over 100 µM in each case. The “RF (Relative Fold), cpd at 0.5 μM” value in data set [3] is listed as “(22.5)”. For the same molecule, the “RF (Relative Fold), cpd at 1 μM” value in data set [3] is recorded as “(95.7)”.

With `O=c1cc(-c2ccc(OCCOCCN(CCOCCOc3ccc(-c4cc(=O)c5ccccc5o4)cc3)Cc3ccncn3)cc2)oc2ccccc12` [Compound 64e, 1,13-Bis[4′-(4H-chromen-4-on-2-yl)phenyl]-7-(4-pyrimidinylmethyl)-1,4,10,13-tetraoxa-7-azamidecane], the IC50 at 72 h in data set [1], in data set [2] and in data set [4] was over 50 µM in each case. In addition, in data set [3], the “RF (Relative Fold), cpd at 0.5 μM” value is recorded as “(8.3)”. Further, the “RF (Relative Fold), cpd at 1 μM” value in data set [3] is listed as “(61.2)”.

In the case of `O=C(c1ccccc1)N(CCOCCOc1ccc(-c2cc(=O)c3ccccc3o2)cc1)CCOCCOc1ccc(-c2cc(=O)c3ccccc3o2)cc1` [Compound 23d, 1,13-Bis[4′-(4H-chromen-4-on-2-yl)phenyl]-7-(benzoyl)-1,4,10,13-tetraoxa-7-azamidecane], the results for the IC50 at 72 h in data set [1], in data set [2] and in data set [4] were over 100 µM, 95 µM and over 100 µM, respectively. Besides, the “RF (Relative Fold), cpd at 0.5 μM” value in data set [3] is listed as “(7.5)”.

As to `O=c1cc(-c2ccc(OCCOCCN(CCOCCOc3ccc(-c4cc(=O)c5ccccc5o4)cc3)Cc3cccc(-c4ccccc4)c3)cc2)oc2ccccc12` [Compound 56, 1,13-Bis[4′-(4H-chromen-4-on-2-yl)phenyl]-7-(3-phenylbenzyl)-1,4,10,13-tetraoxa-7-azamidecane], the IC50 at 72 h in data set [1], in data set [2] and in data set [4] was over 100 µM throughout. Moreover, the “RF (Relative Fold), cpd at 0.5 μM” value in data set [3] was “(2.7)”. The “RF (Relative Fold), cpd at 1 μM” value in data set [3] was “(38.5)”.

For orientation: EC50 means the concentration at which the effect is half-maximal. Take `O=c1cc(-c2ccc(OCCOCCN(CCOCCOc3ccc(-c4cc(=O)c5ccccc5o4)cc3)Cc3ccc(C(F)(F)F)cc3)cc2)oc2ccccc12` [Compound 35, 1,13-Bis[4′-(4H-chromen-4-on-2-yl)phenyl]-7-(4-trifluoromethylbenzyl)-1,4,10,13-tetraoxa-7-azamidecane]: the 50% inhibitory concentration (IC50) at 72 h in data set [1] is over 100 µM. In data set [2], this molecule displayed an IC50 at 72 h of 32.7 µM. For the same molecule, in data set [3], the EC50 is 150 nM; the Therapeutic index worked out at 218.0; the “RF (Relative Fold), cpd at 0.5 μM” value was “(37.3)”. The molecule also yielded an IC50 at 72 h in data set [4] of over 100 µM.

As for `O=c1cc(-c2ccc(OCCOCCN(CCOCCOc3ccc(-c4cc(=O)c5ccccc5o4)cc3)Cc3ccncc3Br)cc2)oc2ccccc12` [Compound 64d, 1,13-Bis[4′-(4H-chromen-4-on-2-yl)phenyl]-7-(4-(3-bromopyridyl)methyl)-1,4,10,13-tetraoxa-7-azamidecane], the IC50 at 72 h in data set [1] was over 100 µM; in data set [2] it was over 50 µM; in data set [4] it was over 100 µM. In addition, the “RF (Relative Fold), cpd at 0.5 μM” value in data set [3] is “(10.6)”. For the same molecule, the “RF (Relative Fold), cpd at 1 μM” value in data set [3] is “(61.2)”.

On to `O=c1cc(-c2ccc(OCCOCCN(CCOCCOc3ccc(-c4cc(=O)c5ccccc5o4)cc3)Cc3ccc(F)cc3F)cc2)oc2ccccc12` [Compound 40, 1,13-Bis[4′-(4H-chromen-4-on-2-yl)phenyl]-7-(2,4-difluorobenzyl)-1,4,10,13-tetraoxa-7-azamidecane], for which the IC50 at 72 h in data set [1] is over 100 µM. In addition, the IC50 at 72 h in data set [2] is over 100 µM. In data set [3], the EC50 is 246 ± 66 nM; the Therapeutic index is over 406.5; the “RF (Relative Fold), cpd at 0.5 μM” value is “(32.6)”; the “RF (Relative Fold), cpd at 1 μM” value was “(117.8)”. For the same molecule, the IC50 at 72 h in data set [4] is over 100 µM.

`O=c1cc(-c2ccc(OCCOCCN(CCOCCOc3ccc(-c4cc(=O)c5ccccc5o4)cc3)c3ccccc3)cc2)oc2ccccc12` [Compound 64h, 1,13-Bis[4′-(4H-chromen-4-on-2-yl)phenyl]-7-(phenyl)-1,4,10,13-tetraoxa-7-azamidecane]: the IC50 at 72 h in data set [1], in data set [2] and in data set [4] was over 100 µM throughout. The “RF (Relative Fold), cpd at 0.5 μM” value in data set [3] is given as “(11.6)”. Further, in data set [3], the “RF (Relative Fold), cpd at 1 μM” value is recorded as “(72.9)”.

With `Cc1ccc(CN(CCOCCOc2ccc(-c3cc(=O)c4ccccc4o3)cc2)CCOCCOc2ccc(-c3cc(=O)c4ccccc4o3)cc2)cc1` [Compound 47, 1,13-Bis[4′-(4H-chromen-4-on-2-yl)phenyl]-7-(4-methylbenzyl)-1,4,10,13-tetraoxa-7-azamidecane], the IC50 at 72 h in data set [1] is over 100 µM; in data set [2], 66.4 ± 16.8 µM; in data set [4], over 81 µM. Besides, the “RF (Relative Fold), cpd at 0.5 μM” value in data set [3] is given as “(31.2)”. Also, the “RF (Relative Fold), cpd at 1 μM” value in data set [3] is recorded as “(109.4)”.

In data set [1], `Nc1ccc(CN(CCOCCOc2ccc(-c3cc(=O)c4ccccc4o3)cc2)CCOCCOc2ccc(-c3cc(=O)c4ccccc4o3)cc2)cc1` [Compound 55, 1,13-Bis[4′-(4H-chromen-4-on-2-yl)phenyl]-7-(4-aminobenzyl)-1,4,10,13-tetraoxa-7-azamidecane] yielded an IC50 at 72 h of over 50 µM. The same molecule displayed an IC50 at 72 h in data set [2] of over 50 µM. Moreover, in data set [3], the EC50 was determined as 244 nM; the Therapeutic index is recorded as 204.9; the “RF (Relative Fold), cpd at 0.5 μM” value is on record as “(8.8)”; the “RF (Relative Fold), cpd at 1 μM” value is “(72.9)”. Also, the IC50 at 72 h in data set [4] was over 50 µM.

Turning to `O=c1cc(-c2ccc(OCCOCCN(CCOCCOc3ccc(-c4cc(=O)c5ccccc5o4)cc3)Cc3ccnc4ccccc34)cc2)oc2ccccc12` [Compound 64f, 1,13-Bis[4′-(4H-chromen-4-on-2-yl)phenyl]-7-(4-quinolinylmethyl)-1,4,10,13-tetraoxa-7-azamidecane], the IC50 at 72 h in data set [1], in data set [2] and in data set [4] was over 100 µM each time. Further, in data set [3], the “RF (Relative Fold), cpd at 0.5 μM” value is “(15.9)”. In data set [3], the “RF (Relative Fold), cpd at 1 μM” value is recorded as “(69.6)”.

On to `CCc1ccc(CN(CCOCCOc2ccc(-c3cc(=O)c4ccccc4o3)cc2)CCOCCOc2ccc(-c3cc(=O)c4ccccc4o3)cc2)cc1` [Compound 53, 1,13-Bis[4′-(4H-chromen-4-on-2-yl)phenyl]-7-(4-ethylbenzyl)-1,4,10,13-tetraoxa-7-azamidecane], for which the IC50 at 72 h was over 100 µM in data set [1], 25.4 ± 8.1 µM in data set [2] and over 100 µM in data set [4]. Also, the “RF (Relative Fold), cpd at 0.5 μM” value in data set [3] is “(23.9)”. Further, the “RF (Relative Fold), cpd at 1 μM” value in data set [3] is reported as “(69.6)”.

As for `O=c1cc(-c2ccc(OCCOCCN(CCOCCOc3ccc(-c4cc(=O)c5ccccc5o4)cc3)Cc3ccc(OC(F)(F)F)cc3)cc2)oc2ccccc12` [Compound 42b, 1,13-Bis[4′-(4H-chromen-4-on-2-yl)phenyl]-7-(4-trifluoromethoxybenzyl)-1,4,10,13-tetraoxa-7-azamidecane], the figures for the IC50 at 72 h in data set [1], in data set [2] and in data set [4] were over 100 µM, over 83 µM and over 100 µM, respectively. For the same molecule, in data set [3], the “RF (Relative Fold), cpd at 0.5 μM” value is recorded as “(3.8)”. In addition, the “RF (Relative Fold), cpd at 1 μM” value in data set [3] is given as “(47.8)”.

`O=c1cc(-c2ccc(OCCOCCN(CCOCCOc3ccc(-c4cc(=O)c5ccccc5o4)cc3)Cc3ccc4ccccc4c3)cc2)oc2ccccc12` [Compound 58, 1,13-Bis[4′-(4H-chromen-4-on-2-yl)phenyl]-7-(2-naphthalenylmethyl)-1,4,10,13-tetraoxa-7-azamidecane] came in with a concentration for half-maximal inhibition (IC50) at 72 h in data set [1] of 4.8 ± 0.4 µM. The molecule also returned an IC50 at 72 h in data set [2] of 5.1 ± 0.3 µM. In addition, in data set [3], the EC50 came to 92 ± 11 nM; the Therapeutic index is 55.4; the “RF (Relative Fold), cpd at 0.5 μM” value is “(95.7)”; the “RF (Relative Fold), cpd at 1 μM” value is given as “(117.8)”. Moreover, half-maximal inhibition in data set [4] (IC50 at 72 h) required 8.9 ± 3.3 µM.

As to `O=c1cc(-c2ccc(OCCOCCN(CCOCCOc3ccc(-c4cc(=O)c5ccccc5o4)cc3)Cc3cccc(Cl)c3)cc2)oc2ccccc12` [Compound 48, 1,13-Bis[4′-(4H-chromen-4-on-2-yl)phenyl]-7-(3-chlorobenzyl)-1,4,10,13-tetraoxa-7-azamidecane], the IC50 at 72 h in data set [1] is over 100 µM; in data set [2], over 100 µM; in data set [4], over 98 µM. In data set [3], the “RF (Relative Fold), cpd at 0.5 μM” value is on record as “(19.6)”. In data set [3], the “RF (Relative Fold), cpd at 1 μM” value is listed as “(80.6)”.

Regarding `C=Cc1ccc(CN(CCOCCOc2ccc(-c3cc(=O)c4ccccc4o3)cc2)CCOCCOc2ccc(-c3cc(=O)c4ccccc4o3)cc2)cc1` [Compound 52, 1,13-Bis[4′-(4H-chromen-4-on-2-yl)phenyl]-7-(4-vinylbenzyl)-1,4,10,13-tetraoxa-7-azamidecane], the results for the IC50 at 72 h in data set [1], in data set [2] and in data set [4] were 21 ± 4.7 µM, 7.4 ± 1 µM and 28.3 ± 8.2 µM, respectively. The “RF (Relative Fold), cpd at 0.5 μM” value in data set [3] is “(72.9)”. Also, in data set [3], the “RF (Relative Fold), cpd at 1 μM” value is listed as “(117.8)”.

The record behind these values is US8980848B2, “Flavonoid dimers and their use” (The Hong Kong Polytechnic University, priority 2010, dated 2015).
